Columns and labels:
[1] = test system: human HTT intron 49 minigene; experiment: Human HTT intron 49 minigene splicing in transfected HEK293 cells (endpoint PCR); format: cell-based; conditions: 10 nM, 100 nM, 1 μM, 24 h
Description: To identify potential sequence elements, human, mouse, and hybrid mouse/human HTT intron 49 minigene constructs were generated (FIG. 7A,7Bi-xii, 7Di-viii and 7Ei-vi). HEK293 cells transfected with the minigene constructs were treated with varying concentrations of test compounds in a final concentration 0.05% DMSO and incubated for 24 hours. Total RNA was isolated from the cells using the RNeasy plus mini kit (Qiagen) and RNA concentration and quality were assessed using a NanoDrop spectrophotometer (Thermo Fisher Scientific). cDNA was synthesized using an iScript™ cDNA synthesis kit (Bio-rad Laboratories) according to the manufacturer's instructions. Endpoint PCRs were set up using Platinum™ PCR SuperMix High Fidelity (Invitrogen) and the resulting PCR products separated on 2% eGels (Invitrogen). Primers were directed against common sequences in the minigene constructs: […]

[2] = test system: SH-SY5Y cells; experiment: RNA-seq analysis of transcriptome and splicing changes in SH-SY5Y cells; format: cell-based, human; conditions: for splicing events altered: 24 h
Description: SHY5Y cells were seeded in 6-well plates at 6×10^5 cells/well in 2 mL 10% FBS, DMEM and incubated for 4 hours. Cells were then treated with two biological replicates of HTT-C1 at 24 nM or 100 nM (in 0.1% DMSO), or four biological replicates of vehicle control (DMSO) for 24 hours (37° C., 5% CO2, 100% relative humidity). HEK293 cells transfected with U1 snRNA minigene constructs treated with either duplicates of 1 μM HTT-C1 or 0.5% DMSO control and incubated for 48 hours (37° C., 5% CO2, 100% relative humidity).
For library preparation and sequencing, mRNA was enriched from about 3 μg of total RNA using oligo(dT) beads (ThermoFisher Scientific). The mRNA was fragmented randomly using fragmentation buffer followed by cDNA synthesis using the mRNA template and random hexamers primer. Second-strand synthesis buffer (Illumina), deoxynucleotides, ribonuclease H and DNA polymerase I were added to initiate second-strand synthesis. After a series of terminal repair, A-ligation and sequencing adaptor ligation, the double-stranded cDNA library was size selected and enriched by PCR. RNA libraries were sequenced in a HiSeq sequencer (Illumina).
RNA sequencing reads were mapped to human genome (hg19) using Spliced Transcripts Alignment to a Reference (STAR) software (version 2.5) (Dobin et L., (2013) Bioinformatics 1; 29(1):15-21). Uniquely mapped reads (with MAPQ>10) having <5 nt/100 nt mismatches were used for analysis.
For gene expression analysis, the number of reads in a coding sequence (CDS) region of protein-coding genes and exonic regions of non-coding genes were counted and analyzed using DESeq2 (Love et al., (2014) Genome Biology, 15:550). For splicing analysis, reads were counted for different exons or exonic regions. For each exon, a Percent-Spliced-In (PSI) value was calculated using the percent of average read number supporting the inclusion of the exon (include both the upstream and downstream junctions) among all reads supporting either the inclusion or the exclusion of an exon. A minimal of 20 for the denominator of PSI calculation was required. Otherwise a “NA” value would be generated. PSI values for biological replicates were averaged and the PSI difference between two treatment groups was calculated. For statistical test, a 2×2 read counts table was made for each exon with rows for reads supporting inclusion or exclusion and columns for the two comparing sample groups (biological replicates were combined). Fisher's Exact Test was used for statistical test. PSI change of >20% (or <−20%) and P-value <0.001 was used to select exons being regulated by the treatment.

[3] = test system: HTT mRNA; experiment: RT-qPCR of HTT mRNA in HD patient B lymphocytes (GM04856); format: cell-based, human
Description: B lymphocytes (GM04856 cells) were plated in 6-well plates at 5×10^5 cells/well in 2 mL of 10% FBS, DMEM and incubated for 6 hours (37° C., 5% CO2, 100% relative humidity). Cells were then treated with HTT-C1 at 125 nM (in 0.5% DMSO) in triplicate for 24 hours. RNA was purified with the RNeasy Mini Kit (Qiagen) according to the manufacturer's protocol. Samples were prepared for RT-PCR (described previously) using 0.04 μL of each primer (at 100 μM). For reverse transcription and PCR, the following steps were performed: RT step: 48° C. (15 min); PCR steps: Step 1: 95° C. (10 min), Step 2: 95° C. (30 sec), Step 3: 55° C. (30 sec), Step 4: 68° C. (1 min); Steps 2 to 4 were repeated for 34 cycles, then held at 4° C. PCR products were separated on 2% agarose E-gels, stained with ethidium bromide and visualized using a UVP gel imager.
To test if the small molecule-induced spliced transcripts are unstable due to nonsense-mediated decay (NMD), GM04856 lymphoblast cells were treated with cycloheximide (CHX). First cells were treated with DMSO or 250 nM HTT-C1 for 18 h. DMSO or 10 uM CHX was then added, and cells harvested for RNAs after 2 h, 4 h, and 8 h.

[4] = test system: mouse HTT protein; experiment: Mouse HTT protein expression under compound treatment; format: cell-based; conditions: at concentrations that reduce human HTT protein expression

| SMILES | compound-induced splicing of minigene [1] | UP cassette exons with no annotation for at least one splice site ([2]; 24 nM) [%] | expression of HTT (RNA-seq) ([2]; 24 nM (~2x the IC50)) | splicing events altered ([2]; 24 nM) | UP cassette exons with no annotation for at least one splice site ([2]; 100 nM) [%] | splicing events altered ([2]; 100 nM) | pseudoexons activated ([2]; FIG. 6D comparison with U1-GA variant) | pseudoexons induced ([2]; at either concentration (24 nM or 100 nM)) | reduction in HTT mRNA (RT-qPCR) ([3]; 250 nM, GM04856 lymphoblast cells, 18 h plus 2-8 h) [%] | lowering of the amount of HTT mRNA as compared to the DMSO control ([3]; 24-hour treatment, 125 nM, B-lymphocytes from an HD patient) | mouse HTT protein expression [4] |
| --- | --- | --- | --- | --- | --- | --- | --- | --- | --- | --- | --- |
| CC1(C)CC(Oc2ccc(-c3ccc(-c4cn[nH]c4)cc3O)nn2)CC(C)(C)N1 [HTT-C2] | responded in a dose dependent manner | 22 | selectively and potently downregulated expression of HTT | 165 | 44 | 215 | 27 | 31 | – | – | – |
| CC1(C)CC(Oc2ccc(-c3ccc(-c4ccnc(O)c4)cc3O)nn2)CC(C)(C)N1 [HTT-C1] | – | – | – | – | – | – | – | – | ~80 | about 85% | no effect |
